Laboratory results published in the NIST ThermoML archive (doi:10.1016/j.fluid.2010.03.001).
± gives the expanded uncertainty stated by the source.

How the values were obtained:
[1] = Liquid; for viscosity / mass density: 101.33 kPa; for viscosity: Concentric cylinders viscometry; for mass density: Vibrating tube method; for vapor or sublimation pressure: Ebulliometric method (Recirculating still)
[2] = xn = mol fraction of the nth substance listed; details: 101 kPa, Liquid, x1 = 1; for viscosity: Concentric cylinders viscometry; for mass density: Vibrating tube method

CCCCCO [pentan-1-ol]
viscosity ([1]; 293.15 K): 4.03 ± 0.04 mPa·s
mass density ([1]; 293.15 K): 814.7 ± 0.3 kg/m3
viscosity ([1]; 298.15 K): 3.48 ± 0.04 mPa·s
mass density ([1]; 298.15 K): 810.7 ± 0.3 kg/m3
viscosity ([1]; 303.15 K): 3.02 ± 0.03 mPa·s
mass density ([1]; 303.15 K): 807.2 ± 0.3 kg/m3
viscosity ([1]; 313.15 K): 2.315 ± 0.024 mPa·s
mass density ([1]; 313.15 K): 799.8 ± 0.3 kg/m3
viscosity ([1]; 323.15 K): 1.801 ± 0.019 mPa·s
mass density ([1]; 323.15 K): 792.2 ± 0.3 kg/m3
vapor or sublimation pressure ([1]; 328.15 K): 2.3 ± 0.1 kPa
vapor or sublimation pressure ([1]; 329.5 K): 2.5 ± 0.1 kPa
viscosity ([1]; 333.15 K): 1.425 ± 0.015 mPa·s
mass density ([1]; 333.15 K): 784.3 ± 0.3 kg/m3
vapor or sublimation pressure ([1]; 333.15 K): 3.1 ± 0.1 kPa
vapor or sublimation pressure ([1]; 338.15 K): 4.2 ± 0.1 kPa
vapor or sublimation pressure ([1]; 341.2 K): 5 ± 0.1 kPa
viscosity ([1]; 343.15 K): 1.146 ± 0.013 mPa·s
mass density ([1]; 343.15 K): 776.3 ± 0.3 kg/m3
vapor or sublimation pressure ([1]; 343.15 K): 5.6 ± 0.1 kPa
vapor or sublimation pressure ([1]; 348.75 K): 7.5 ± 0.1 kPa
viscosity ([1]; 353.15 K): 0.935 ± 0.011 mPa·s
mass density ([1]; 353.15 K): 768 ± 0.3 kg/m3
vapor or sublimation pressure ([1]; 354.37 K): 10 ± 0.1 kPa
vapor or sublimation pressure ([1]; 362.63 K): 15 ± 0.1 kPa
viscosity ([1]; 363.15 K): 0.772 ± 0.009 mPa·s
mass density ([1]; 363.15 K): 759.5 ± 0.3 kg/m3
vapor or sublimation pressure ([1]; 368.86 K): 20 ± 0.1 kPa
viscosity ([1]; 373.15 K): 0.647 ± 0.008 mPa·s
mass density ([1]; 373.15 K): 750.6 ± 0.3 kg/m3
vapor or sublimation pressure ([1]; 378.2 K): 30 ± 0.1 kPa
vapor or sublimation pressure ([1]; 385.33 K): 40 ± 0.1 kPa
vapor or sublimation pressure ([1]; 391.03 K): 50 ± 0.1 kPa
vapor or sublimation pressure ([1]; 395.87 K): 60 ± 0.2 kPa
vapor or sublimation pressure ([1]; 400.1 K): 70 ± 0.2 kPa
vapor or sublimation pressure ([1]; 403.86 K): 80 ± 0.2 kPa
vapor or sublimation pressure ([1]; 407.25 K): 90 ± 0.2 kPa
vapor or sublimation pressure ([1]; 408.9 K): 95.1 ± 0.2 kPa

CCCCCO [pentan-1-ol] + C=C(C)[C@H]1CC=C(C)CC1
viscosity ([2]; 293.15 K): 4.03 ± 0.04 mPa·s
mass density ([2]; 293.15 K): 814.7 ± 0.3 kg/m3
viscosity ([2]; 303.15 K): 3.02 ± 0.03 mPa·s
mass density ([2]; 303.15 K): 807.2 ± 0.3 kg/m3
viscosity ([2]; 313.15 K): 2.315 ± 0.024 mPa·s
mass density ([2]; 313.15 K): 799.8 ± 0.3 kg/m3
viscosity ([2]; 323.15 K): 1.801 ± 0.019 mPa·s
mass density ([2]; 323.15 K): 792.2 ± 0.3 kg/m3
viscosity ([2]; 333.15 K): 1.425 ± 0.015 mPa·s
mass density ([2]; 333.15 K): 784.3 ± 0.3 kg/m3
viscosity ([2]; 343.15 K): 1.146 ± 0.013 mPa·s
mass density ([2]; 343.15 K): 776.3 ± 0.3 kg/m3
viscosity ([2]; 353.15 K): 0.935 ± 0.011 mPa·s
mass density ([2]; 353.15 K): 768 ± 0.3 kg/m3
viscosity ([2]; 363.15 K): 0.772 ± 0.009 mPa·s
mass density ([2]; 363.15 K): 759.5 ± 0.3 kg/m3
viscosity ([2]; 373.15 K): 0.647 ± 0.008 mPa·s
mass density ([2]; 373.15 K): 750.6 ± 0.3 kg/m3

C=C(C)[C@H]1CC=C(C)CC1 [(R)-1-methyl-4-(1-methylethenyl)cyclohexene]
viscosity ([1]; 293.15 K): 0.902 ± 0.014 mPa·s
viscosity ([1]; 298.15 K): 0.89 ± 0.014 mPa·s
mass density ([1]; 298.15 K): 837.3 ± 1 kg/m3
viscosity ([1]; 303.15 K): 0.793 ± 0.013 mPa·s
mass density ([1]; 303.15 K): 833.6 ± 1 kg/m3
viscosity ([1]; 313.15 K): 0.702 ± 0.011 mPa·s
mass density ([1]; 313.15 K): 825.8 ± 1 kg/m3
viscosity ([1]; 323.15 K): 0.628 ± 0.01 mPa·s
mass density ([1]; 323.15 K): 817.9 ± 1 kg/m3
viscosity ([1]; 333.15 K): 0.566 ± 0.01 mPa·s
mass density ([1]; 333.15 K): 809.9 ± 0.9 kg/m3
viscosity ([1]; 343.15 K): 0.5 ± 0.009 mPa·s
mass density ([1]; 343.15 K): 801.9 ± 0.9 kg/m3
viscosity ([1]; 353.15 K): 0.452 ± 0.008 mPa·s
mass density ([1]; 353.15 K): 793.6 ± 0.9 kg/m3
viscosity ([1]; 363.15 K): 0.413 ± 0.008 mPa·s
mass density ([1]; 363.15 K): 785.4 ± 0.9 kg/m3
viscosity ([1]; 373.15 K): 0.382 ± 0.007 mPa·s
mass density ([1]; 373.15 K): 777.1 ± 0.9 kg/m3
